# According to patent US20130053336A1, “TREATMENT OF CHLAMYDIACEAE INFECTIONS BY MEANS OF BETA-LACTAMS” (priority 2010, published 2013):
# “Also recorded” adds a separate entry of the source.
# Legend:
# Format in all cases: cell-based
# [1] = system: Chlamydia trachomatis serovar L2; test: Infectivity of progeny bacteria (IFU titration, reactivation test)
# Method: HeLa cells were infected with the Chlamydia trachomatis L2 serovar at 1 inclusion forming unit (IFU). At 3 hpi, 3 equal batches were distinguished and penicillin G was added at a concentration of 100 U/ml to the “penicillin G” batch (black bar) and “reversion” (gray bar) but not in the control batch (white bar). At 24 hpi, penicillin G was removed from the culture medium in the reversion group. At 48 hpi or 100 hpi, the supernatants and the cells were combined and stored at -80° C. Fresh cultures of HeLa cells were then incubated for 1 hour with cell extracts (left) or supernatants (right), incubated with cycloheximide and fixed 24 hours later. The nuclei and the inclusions were stained and counted to calculate the number of IFU/ml. […] It is also a first indication of the lethality of Chlamydia. HeLa cells were infected with Chlamydia trachomatis serovar L2 at 1 IFU. At 3 hpi, penicillin G was added at a concentration of 1, 10 or 100 U/ml in the penicillin G (-) and reversion (+) samples. At 24 hpi, penicillin G was removed from the culture medium in the reversion group (+). At 48 hpi or 100 hpi, the supernatants and the cells were collected and stored at -80° C. HeLa cells grown on slides were incubated for 1 hour with cell extracts (left) or with supernatants (right), treated with cycloheximide and fixed 24 hours later. The nuclei and inclusions were stained and counted to determine the number of IFU/ml. […] The infections were carried out at 37° C. for 90 minutes with centrifugation, followed by a washing of extracellular bacteria. At 3 hpi, after the washings, the culture medium was replaced with medium containing either 25 μg/ml gentamicin or 1-100 IU/ml penicillin G. At regular intervals after treatment with penicillin G, the cultures were either fixed in 4% neutral buffered PFA for 30 minutes to be prepared for confocal microscopy, or collected to determine the infectivity of the progeny bacteria, according to the previously described method (Verbeke, P. et al. PLoS Pathog 2:e45, 2006). HeLa cells cultured in monolayers on slides were infected with Chlamydia trachomatis serovar L2 and treated with penicillin G, as described above. Twenty hours after infection, the culture was washed and the medium replaced with medium free of penicillin G. Between 48 and 100 hpi, the cells and the culture medium were collected at various intervals and a titration test was performed according to the method of the prior art (Scidmore, M. A. Curr Protoc Microbiol Chapter 11: Unit 11A 11, 2005). To determine whether treatment with penicillin G could affect bacterial persistence, HeLa cells infected with L2 and treated with IFN-γ and penicillin G (500 IU/ml) from 48 hpi (i.e. 24 hours after treatment with IFN-γ) to 72 hpi (i.e. 48 hours after treatment with IFN-γ). The slides were then fixed and observed using an epifluorescence microscope (Leica D M, Leica, Mannheim, Germany) equipped with two sets of detection filters (Hoechst 360/40 nmBP-425 nmLP; FITC 480/40 nmBP-527/30 nmBP) and connected to a CCD camera CCC.
# [2] = system: HeLa cells infected with Chlamydia trachomatis; test: Sensitivity to apoptosis of infected cells (staurosporine)
# Method: A: HeLa cells were infected with Chlamydia trachomatis and treated or not treated with penicillin G at 3 hpi. At 21 hpi, staurosporine was added to the culture medium. The cells were fixed at 48 hpi and stained with an antibody against Chlamydia sp. (green in the original figure) and Hoechst (blue in the original figure).
# B: Normal or apoptotic nuclei associated with inclusions were counted and the percentage of infected cells in apoptosis was calculated.
# HeLa cells were infected in the absence (white bar) or presence of penicillin G (100 U/ml) added at […] (light gray bar) or at 29 hpi (dark gray bar). Staurosporine was added at 31 hpi. The cells were fixed and observed as described below. The apoptotic or normal nuclei associated with inclusions were counted, and the percentages of apoptotic infected cells were determined. In 2 hours, treatment with penicillin G induces a loss of control by Chlamydia trachomatis over host cell apoptosis.
# The effect of treatment with penicillin G on the anti-apoptotic activity of Chlamydia was determined. HeLa cells cultured in monolayers on slides were infected with serovar L2 and treated with penicillin G at 3 hpi or 29 hpi. At 25 hpi or 32 hpi, respectively, the cells were incubated with 1 μM staurosporine, fixed at 40 hpi or 48 hpi and prepared for epifluorescence microscopy. The percentages of infected cells containing apoptotic nuclei were calculated.
# [3] = system: Chlamydia trachomatis L2 serovar 16S rRNA; test: 16S rRNA expression by RT-PCR; settings: 100 hpi
# Excerpt: HeLa cells were infected with the Chlamydia trachomatis L2 serovar and treated or not treated with penicillin G at 3 hpi. At 100 hpi, the cells were collected and the RNA extracted carefully to avoid DNA contamination. Half of the isolated RNA was used for reverse transcription. The RNA and cDNA were amplified by PCR with primers for 16S (bacterial) and 18S (eukaryotic) rRNA in order to study bacterial activity and to verify cDNA quality and quantity. PCR of the RNA is used to verify the absence of DNA contamination. It also indicates the absence of contaminant in the PCR. […] Roughly 1×10^5 HeLa cells were infected and exposed or not exposed to penicillin G, as described above. At 100 hpi, total RNA were isolated using the RNeasy Plus Mini Kit (Qiagen, Hilden, Germany). The samples were treated with DNase I for 1 hour at 37° C. The enzyme was then denatured at 70° C. for 10 min. The RNA were reverse-transcribed into cDNA using random hexamer primers and AffinityScript Multiple Temperature Reverse Transcriptase (Agilent, Santa Clara, Calif., USA) and by following the manufacturer's instructions for RT-PCR. cDNA and RNA were amplified by PCR with Tag Polymerase (Invitrogen, Carlsbad, Calif., USA) in order to verify the absence of DNA contamination. The primers used to amplify 16S rRNA are: A semi-quantitative analysis of the PCR products was carried out by agarose gel electrophoresis and UV detection.
# [4] = system: Chlamydia trachomatis inclusions; test: Fusion of lysosomes with inclusions (cathepsin D, LysoTracker, confocal microscopy)
structure (smiles),measurement,setting,value
"CC1(C)S[C@@H]2[C@H](NC(=O)Cc3ccccc3)C(=O)N2[C@H]1C(=O)O [Penicillin G, benzylpenicillin]",infectivity at low penicillin G concentrations,"[1]; 1, 10 or 100 U/ml, permanent or transitory treatment",same irreversible loss of infectivity; also recorded: no reinfection was obtained
same,infectivity after removing penicillin G at 24 hpi (reversion),"[1]; 100 U/ml from 3 hpi, removed at 24 hpi",no improvement in infectivity
same,infectious ability (IFU/ml) with or without reversion phase,"[1]; 100 U/ml, 48 hpi or 100 hpi, cell extracts and supernatants, FIG. 2",no infectious ability could be shown
same,infectivity of bacteria collected at 48 hpi compared with gentamicin-treated cells,"[1]; continuous 100 IU/ml, 48 hpi",several hundred times less infectious
same,infectivity of bacteria released at 100 hpi,"[1]; continuous 100 IU/ml, 100 hpi",completely noninfectious
same,speed of loss of control over host cell apoptosis,"[2]; penicillin G 100 U/ml at 29 hpi, staurosporine at 31 hpi",≤ 2 h
same,apoptotic cells,"[2]; penicillin G at 2 hpi or 29 hpi, staurosporine at 31 hpi, observed 8 hours later",Roughly 38%
same,infected cells showing signs of apoptosis,"[2]; penicillin G, 4 μM staurosporine at 21 hpi, read at 48 hpi",70.39%
same,16S rRNA expression in infected cells,[3],"do not produce bacterial RNA; also recorded: express 18S RNA, but not 16S"
same,localization of cathepsin D in inclusions,"[4]; HeLa, 24 hpi",the majority of the abnormal bacterial forms contained cathepsin D
same,cathepsin D in abnormal inclusions of other cell/serovar pairs,[4]; RL95-2 cells/serovar L2 or HeLa cells/serovar D,also contain cathepsin D
same,LysoTracker-stained compartments and inclusions,[4]; confocal videomicroscopy,compartments stained with LysoTracker probes enter abnormal inclusions
